Test results: ChEMBL document CHEMBL4043169, “Discovery of potent and selective CDK8 inhibitors through FBDD approach” (Bioorg Med Chem Lett, 2017)

Experiments:
CDK8/Cyclin C = CDK8/Cyclin C (Homo sapiens, UniProt P49336); experiment: Inhibition of recombinant full length His-tagged human CDK8/Cyclin C expressed in baculovirus expression system using Ulight-GS peptide as substrate after 30 mins in presence of ATP by TR-FRET assay
AGS = experiment: Antiproliferative activity against human AGS cells after 72 hrs by MTT assay
[1] = biological target: Platelet-derived growth factor receptor alpha (Homo sapiens) (UniProt P16234); experiment: Inhibition of PDGFRalpha (unknown origin) at 1 uM relative to control
[2] = biological target: Vascular endothelial growth factor receptor 2 (Homo sapiens) (UniProt P35968); experiment: Inhibition of KDR (unknown origin) at 1 uM relative to control
[3] = biological target: Fibroblast growth factor receptor 1 (Homo sapiens) (UniProt P11362); experiment: Inhibition of FGFR1 (unknown origin) at 1 uM relative to control
[4] = biological target: Tyrosine-protein kinase JAK2 (Homo sapiens) (UniProt O60674); experiment: Inhibition of JAK2 (unknown origin) at 1 uM relative to control
Homo sapiens = species on record: Homo sapiens; experiment: Inhibition of P70S6K (unknown origin) at 1 uM relative to control
[5] = biological target: Calcium/calmodulin-dependent protein kinase type IV (Homo sapiens) (UniProt Q16566); experiment: Inhibition of CAMK4 (unknown origin) at 1 uM relative to control
[6] = biological target: Angiopoietin-1 receptor (Homo sapiens) (UniProt Q02763); experiment: Inhibition of TIE2 (unknown origin) at 1 uM relative to control
[7] = biological target: Mast/stem cell growth factor receptor Kit (Homo sapiens) (UniProt P10721); experiment: Inhibition of cKIT (unknown origin) at 1 uM relative to control
[8] = biological target: Mitogen-activated protein kinase 14 (Homo sapiens) (UniProt Q16539); experiment: Inhibition of p38alpha (unknown origin) at 1 uM relative to control
[9] = biological target: Serine/threonine-protein kinase PAK 4 (Homo sapiens) (UniProt O96013); experiment: Inhibition of PAK4 (unknown origin) at 1 uM relative to control
[10] = biological target: Serine/threonine-protein kinase Sgk1 (Homo sapiens) (UniProt O00141); experiment: Inhibition of SGK (unknown origin) at 1 uM relative to control
[11] = biological target: Tyrosine-protein kinase ABL1 (Homo sapiens) (UniProt P00519); experiment: Inhibition of ABL (unknown origin) at 1 uM relative to control
[12] = biological target: Inhibitor of nuclear factor kappa-B kinase subunit beta (Homo sapiens) (UniProt O14920); experiment: Inhibition of IKKbeta (unknown origin) at 1 uM relative to control
[13] = biological target: Proto-oncogene tyrosine-protein kinase Src (Homo sapiens) (UniProt P12931); experiment: Inhibition of SRC (unknown origin) at 1 uM relative to control
[14] = biological target: Tyrosine-protein kinase Lck (Homo sapiens) (UniProt P06239); experiment: Inhibition of LCK (unknown origin) at 1 uM relative to control
[15] = biological target: Ephrin type-A receptor 1 (Homo sapiens) (UniProt P21709); experiment: Inhibition of EPHA1 (unknown origin) at 1 uM relative to control
[16] = biological target: ALK tyrosine kinase receptor (Homo sapiens) (UniProt Q9UM73); experiment: Inhibition of ALK (unknown origin) at 1 uM relative to control
[17] = biological target: Epidermal growth factor receptor (Homo sapiens) (UniProt P00533); experiment: Inhibition of EGFR (unknown origin) at 1 uM relative to control
[18] = biological target: RAC-alpha serine/threonine-protein kinase (Homo sapiens) (UniProt P31749); experiment: Inhibition of AKT1 (unknown origin) at 1 uM relative to control
[19] = biological target: Insulin-like growth factor 1 receptor (Homo sapiens) (UniProt P08069); experiment: Inhibition of IGF1R (unknown origin) at 1 uM relative to control
[20] = biological target: Ribosomal protein S6 kinase alpha-1 (Homo sapiens) (UniProt Q15418); experiment: Inhibition of RSK1 (unknown origin) at 1 uM relative to control
[21] = biological target: Ribosomal protein S6 kinase alpha-2 (Homo sapiens) (UniProt Q15349); experiment: Inhibition of RSK2 (unknown origin) at 1 uM relative to control
[22] = biological target: Ribosomal protein S6 kinase alpha-5 (Homo sapiens) (UniProt O75582); experiment: Inhibition of MSK1 (unknown origin) at 1 uM relative to control
[23] = biological target: Ribosomal protein S6 kinase alpha-4 (Homo sapiens) (UniProt O75676); experiment: Inhibition of MSK2 (unknown origin) at 1 uM relative to control
[24] = biological target: Serine/threonine-protein kinase pim-1 (Homo sapiens) (UniProt P11309); experiment: Inhibition of PIM1 (unknown origin) at 1 uM relative to control
[25] = biological target: Protein kinase C alpha type (Homo sapiens) (UniProt P17252); experiment: Inhibition of PKCalpha (unknown origin) at 1 uM relative to control
[26] = biological target: Rho-associated protein kinase 1 (Homo sapiens) (UniProt Q13464); experiment: Inhibition of ROCK1 (unknown origin) at 1 uM relative to control
[27] = biological target: Glycogen synthase kinase-3 beta (Homo sapiens) (UniProt P49841); experiment: Inhibition of Gsk3beta (unknown origin) at 1 uM relative to control
[28] = biological target: Mitogen-activated protein kinase 9 (Homo sapiens) (UniProt P45984); experiment: Inhibition of JNK2 (unknown origin) at 1 uM relative to control
[29] = biological target: Serine/threonine-protein kinase MARK1 (Homo sapiens) (UniProt Q9P0L2); experiment: Inhibition of MARK1 (unknown origin) at 1 uM relative to control
[30] = biological target: Serine/threonine-protein kinase 4 (Homo sapiens) (UniProt Q13043); experiment: Inhibition of MST1 (unknown origin) at 1 uM relative to control
[31] = biological target: Casein kinase I isoform delta (Homo sapiens) (UniProt P48730); experiment: Inhibition of CK1delta (unknown origin) at 1 uM relative to control
[32] = biological target: Aurora kinase B (Homo sapiens) (UniProt Q96GD4); experiment: Inhibition of AurB (unknown origin) at 1 uM relative to control
[33] = biological target: Aurora kinase A (Homo sapiens) (UniProt O14965); experiment: Inhibition of AurA (unknown origin) at 1 uM relative to control
[34] = biological target: 5'-AMP-activated protein kinase catalytic subunit alpha-1 (Homo sapiens) (UniProt Q13131); experiment: Inhibition of AMPKa1 (unknown origin) at 1 uM relative to control
[35] = biological target: Receptor-type tyrosine-protein kinase FLT3 (Homo sapiens) (UniProt P36888); experiment: Inhibition of FLT3 (unknown origin) at 1 uM relative to control
[36] = biological target: Hepatocyte growth factor receptor (Homo sapiens) (UniProt P08581); experiment: Inhibition of cMET (unknown origin) at 1 uM relative to control
[37] = biological target: Interleukin-1 receptor-associated kinase 1 (Homo sapiens) (UniProt P51617); experiment: Inhibition of IRAK1 (unknown origin) at 1 uM relative to control
[38] = biological target: Mitogen-activated protein kinase 3 (Homo sapiens) (UniProt P27361); experiment: Inhibition of ERK1 (unknown origin) at 1 uM relative to control
[39] = biological target: Receptor tyrosine-protein kinase erbB-2 (Homo sapiens) (UniProt P04626); experiment: Inhibition of HER2 (unknown origin) at 1 uM relative to control
[40] = biological target: Cyclin-dependent kinase 2 (Homo sapiens) (UniProt P24941); experiment: Inhibition of CDK2 (unknown origin) at 1 uM relative to control
[41] = biological target: Cyclin-dependent kinase 6 (Homo sapiens) (UniProt Q00534); experiment: Inhibition of CDK6 (unknown origin) at 1 uM relative to control
[42] = biological target: 3-phosphoinositide-dependent protein kinase 1 (Homo sapiens) (UniProt O15530); experiment: Inhibition of PDK1 (unknown origin) at 1 uM relative to control
[43] = Clearance in mouse at 5 mg/kg, iv; assay type: ADME, organism-based; conditions: in vivo
[44] = Cmax in mouse at 5 mg/kg, iv; assay type: ADME, organism-based; set-up: dose 5 mg/kg, route intravenous; conditions: in vivo
[45] = Cmax in mouse at 25 mg/kg, po; assay type: ADME, organism-based; set-up: dose 25 mg/kg, route oral; conditions: in vivo
[46] = Tmax in mouse at 25 mg/kg, po; assay type: ADME, organism-based; conditions: in vivo
[47] = Half life in mouse at 5 mg/kg, iv; assay type: ADME, organism-based; conditions: in vivo
[48] = Half life in mouse at 25 mg/kg, po; assay type: ADME, organism-based; conditions: in vivo
[49] = Volume of distribution at steady state in mouse at 5 mg/kg, iv; assay type: ADME, organism-based; conditions: in vivo, read-out: Vdss
[50] = Oral bioavailability in mouse at 25 mg/kg; assay type: ADME, organism-based; conditions: in vivo

CDK8/Cyclin C, sequence (P49336 whole entry): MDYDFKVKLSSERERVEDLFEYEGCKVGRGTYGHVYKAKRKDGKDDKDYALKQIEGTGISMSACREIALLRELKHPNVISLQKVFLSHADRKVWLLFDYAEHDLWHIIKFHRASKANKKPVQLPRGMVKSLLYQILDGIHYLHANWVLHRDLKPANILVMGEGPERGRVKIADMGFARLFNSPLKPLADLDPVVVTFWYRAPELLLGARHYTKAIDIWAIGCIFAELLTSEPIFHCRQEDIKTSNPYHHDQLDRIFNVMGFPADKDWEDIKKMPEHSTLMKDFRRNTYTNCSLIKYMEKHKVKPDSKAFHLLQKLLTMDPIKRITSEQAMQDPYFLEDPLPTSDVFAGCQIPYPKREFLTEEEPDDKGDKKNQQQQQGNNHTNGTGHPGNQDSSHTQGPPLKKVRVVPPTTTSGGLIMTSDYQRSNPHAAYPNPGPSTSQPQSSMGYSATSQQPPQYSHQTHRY
CDK8/Cyclin C, sequence (P24863 whole entry, further chain): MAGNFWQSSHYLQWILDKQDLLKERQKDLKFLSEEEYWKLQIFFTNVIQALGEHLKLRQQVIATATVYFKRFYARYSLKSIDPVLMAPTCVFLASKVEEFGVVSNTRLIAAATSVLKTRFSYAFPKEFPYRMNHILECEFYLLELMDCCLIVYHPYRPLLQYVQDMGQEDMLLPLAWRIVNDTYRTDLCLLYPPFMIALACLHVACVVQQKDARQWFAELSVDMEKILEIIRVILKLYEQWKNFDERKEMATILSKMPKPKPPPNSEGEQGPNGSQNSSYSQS
Insulin-like growth factor 1 receptor (Homo sapiens), sequence (P08069 31-736 limits assumed): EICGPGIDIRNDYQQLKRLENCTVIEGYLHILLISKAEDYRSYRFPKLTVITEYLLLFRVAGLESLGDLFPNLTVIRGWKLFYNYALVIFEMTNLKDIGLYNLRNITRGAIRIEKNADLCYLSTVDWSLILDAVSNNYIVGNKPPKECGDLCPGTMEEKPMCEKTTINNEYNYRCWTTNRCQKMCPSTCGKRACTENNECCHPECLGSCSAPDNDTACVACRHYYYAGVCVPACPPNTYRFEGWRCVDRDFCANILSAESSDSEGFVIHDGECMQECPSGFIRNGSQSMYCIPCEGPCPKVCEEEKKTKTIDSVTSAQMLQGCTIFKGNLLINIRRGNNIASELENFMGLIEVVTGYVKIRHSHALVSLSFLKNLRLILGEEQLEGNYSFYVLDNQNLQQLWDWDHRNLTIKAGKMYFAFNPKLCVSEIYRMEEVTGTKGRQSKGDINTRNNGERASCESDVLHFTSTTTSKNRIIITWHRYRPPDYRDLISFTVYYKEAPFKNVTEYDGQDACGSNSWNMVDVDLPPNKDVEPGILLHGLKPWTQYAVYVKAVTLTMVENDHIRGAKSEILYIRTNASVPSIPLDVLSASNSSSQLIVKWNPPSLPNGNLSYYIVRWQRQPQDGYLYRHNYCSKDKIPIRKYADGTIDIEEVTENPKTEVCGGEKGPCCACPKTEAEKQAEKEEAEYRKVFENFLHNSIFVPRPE
Insulin-like growth factor 1 receptor (Homo sapiens), sequence (P08069 741-1367 limits assumed): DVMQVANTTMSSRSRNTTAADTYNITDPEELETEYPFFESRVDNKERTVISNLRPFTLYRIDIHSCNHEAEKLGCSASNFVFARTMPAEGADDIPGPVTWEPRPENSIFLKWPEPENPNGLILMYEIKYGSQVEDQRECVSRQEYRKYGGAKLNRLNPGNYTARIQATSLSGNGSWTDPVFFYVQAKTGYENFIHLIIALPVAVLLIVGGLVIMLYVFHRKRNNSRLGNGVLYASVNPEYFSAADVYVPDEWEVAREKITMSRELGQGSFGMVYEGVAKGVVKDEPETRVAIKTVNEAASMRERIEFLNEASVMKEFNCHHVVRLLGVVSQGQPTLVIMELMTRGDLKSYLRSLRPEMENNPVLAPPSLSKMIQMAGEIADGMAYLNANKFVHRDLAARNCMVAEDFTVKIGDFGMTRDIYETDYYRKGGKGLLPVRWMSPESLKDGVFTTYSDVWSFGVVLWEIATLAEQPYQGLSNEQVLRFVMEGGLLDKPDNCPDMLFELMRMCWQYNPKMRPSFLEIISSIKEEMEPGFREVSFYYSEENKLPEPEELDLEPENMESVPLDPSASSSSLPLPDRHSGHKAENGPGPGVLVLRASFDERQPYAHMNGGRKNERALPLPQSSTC
Aurora kinase A (Homo sapiens), sequence (O14965 whole entry): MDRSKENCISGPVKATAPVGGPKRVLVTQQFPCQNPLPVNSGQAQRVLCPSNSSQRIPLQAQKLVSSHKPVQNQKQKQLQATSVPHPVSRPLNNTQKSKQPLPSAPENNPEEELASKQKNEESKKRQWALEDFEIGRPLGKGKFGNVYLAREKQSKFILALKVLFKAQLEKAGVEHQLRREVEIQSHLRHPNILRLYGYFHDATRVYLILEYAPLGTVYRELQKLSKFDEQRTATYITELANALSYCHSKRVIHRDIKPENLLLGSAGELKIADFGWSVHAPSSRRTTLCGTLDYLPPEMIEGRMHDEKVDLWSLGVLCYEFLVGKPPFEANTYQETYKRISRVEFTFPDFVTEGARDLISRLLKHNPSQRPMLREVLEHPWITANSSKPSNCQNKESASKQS
RAC-alpha serine/threonine-protein kinase (Homo sapiens), sequence (P31749 whole entry): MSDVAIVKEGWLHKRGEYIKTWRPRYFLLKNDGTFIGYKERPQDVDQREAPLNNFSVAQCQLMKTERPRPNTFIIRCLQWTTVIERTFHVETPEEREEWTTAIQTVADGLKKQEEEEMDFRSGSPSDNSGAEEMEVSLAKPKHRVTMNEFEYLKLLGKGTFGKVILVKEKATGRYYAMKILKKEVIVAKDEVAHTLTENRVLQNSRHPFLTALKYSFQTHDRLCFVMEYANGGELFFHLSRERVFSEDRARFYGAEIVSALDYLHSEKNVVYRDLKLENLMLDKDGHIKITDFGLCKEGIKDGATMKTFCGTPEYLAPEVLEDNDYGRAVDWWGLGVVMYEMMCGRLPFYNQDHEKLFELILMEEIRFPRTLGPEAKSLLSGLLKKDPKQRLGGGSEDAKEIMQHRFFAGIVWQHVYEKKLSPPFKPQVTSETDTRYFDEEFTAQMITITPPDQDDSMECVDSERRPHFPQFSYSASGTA
Ephrin type-A receptor 1 (Homo sapiens), sequence (P21709 whole entry): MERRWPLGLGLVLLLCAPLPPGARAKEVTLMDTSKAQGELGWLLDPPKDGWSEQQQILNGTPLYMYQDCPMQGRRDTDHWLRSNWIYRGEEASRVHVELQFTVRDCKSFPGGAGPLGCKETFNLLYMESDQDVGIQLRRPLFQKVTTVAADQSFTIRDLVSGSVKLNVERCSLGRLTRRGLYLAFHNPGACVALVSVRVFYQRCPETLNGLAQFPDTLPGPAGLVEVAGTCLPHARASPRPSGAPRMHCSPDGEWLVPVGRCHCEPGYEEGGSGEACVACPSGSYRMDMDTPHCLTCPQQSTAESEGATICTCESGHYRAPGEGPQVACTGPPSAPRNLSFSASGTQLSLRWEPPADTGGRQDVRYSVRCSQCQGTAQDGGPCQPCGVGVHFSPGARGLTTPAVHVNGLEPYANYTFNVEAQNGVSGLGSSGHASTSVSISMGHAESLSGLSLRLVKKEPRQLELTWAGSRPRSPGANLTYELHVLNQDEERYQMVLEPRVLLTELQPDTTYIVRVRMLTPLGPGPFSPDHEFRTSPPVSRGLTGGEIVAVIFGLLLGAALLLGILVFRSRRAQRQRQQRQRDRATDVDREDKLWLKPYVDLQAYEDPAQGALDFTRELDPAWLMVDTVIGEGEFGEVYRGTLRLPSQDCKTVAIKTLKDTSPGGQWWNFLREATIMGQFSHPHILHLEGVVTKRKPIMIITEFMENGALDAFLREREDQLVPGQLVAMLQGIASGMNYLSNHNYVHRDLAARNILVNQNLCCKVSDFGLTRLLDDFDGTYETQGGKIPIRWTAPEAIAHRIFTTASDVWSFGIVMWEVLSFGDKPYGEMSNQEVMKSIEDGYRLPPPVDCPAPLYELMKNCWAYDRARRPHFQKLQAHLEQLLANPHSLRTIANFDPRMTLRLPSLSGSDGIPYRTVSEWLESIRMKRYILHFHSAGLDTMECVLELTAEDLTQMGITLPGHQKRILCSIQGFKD
Tyrosine-protein kinase Lck (Homo sapiens), sequence (P06239 2-509 limits assumed): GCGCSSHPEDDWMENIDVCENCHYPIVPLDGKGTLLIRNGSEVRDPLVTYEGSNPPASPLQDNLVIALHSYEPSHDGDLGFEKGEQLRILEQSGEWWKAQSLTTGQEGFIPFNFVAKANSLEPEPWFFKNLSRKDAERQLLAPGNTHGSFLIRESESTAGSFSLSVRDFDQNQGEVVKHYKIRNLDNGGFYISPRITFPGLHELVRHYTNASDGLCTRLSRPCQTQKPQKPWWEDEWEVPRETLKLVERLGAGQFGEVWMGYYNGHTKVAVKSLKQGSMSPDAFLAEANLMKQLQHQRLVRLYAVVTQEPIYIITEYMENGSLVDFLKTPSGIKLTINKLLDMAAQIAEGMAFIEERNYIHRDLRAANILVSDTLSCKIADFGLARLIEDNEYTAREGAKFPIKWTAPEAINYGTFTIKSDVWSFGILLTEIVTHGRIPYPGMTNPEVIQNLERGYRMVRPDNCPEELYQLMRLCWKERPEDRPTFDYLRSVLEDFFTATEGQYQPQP
Glycogen synthase kinase-3 beta (Homo sapiens), sequence (P49841 whole entry, looked up): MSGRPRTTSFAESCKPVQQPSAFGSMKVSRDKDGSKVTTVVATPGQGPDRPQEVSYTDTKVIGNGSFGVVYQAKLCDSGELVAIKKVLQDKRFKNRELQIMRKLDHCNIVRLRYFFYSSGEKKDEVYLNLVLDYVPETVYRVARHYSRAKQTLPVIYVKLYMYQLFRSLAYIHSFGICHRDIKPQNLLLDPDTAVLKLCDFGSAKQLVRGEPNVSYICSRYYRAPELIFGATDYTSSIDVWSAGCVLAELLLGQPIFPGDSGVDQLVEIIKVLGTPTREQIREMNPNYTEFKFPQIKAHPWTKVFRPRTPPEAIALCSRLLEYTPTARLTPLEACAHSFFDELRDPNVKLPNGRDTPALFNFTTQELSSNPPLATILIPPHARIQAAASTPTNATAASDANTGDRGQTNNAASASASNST

Q: With `NC(=O)c1cc(-c2ccncc2)cn1Cc1ccccc1` as the compound, how does the IC50 (CDK8/Cyclin C) read?
A: 0.17 µM

Q: Which IC50 (CDK8/Cyclin C) does the source give for `Cn1cc(-c2ccncc2)cc1C(N)=O` here?
A: 4.95 µM

Q: With `Cc1cc(-c2c[nH]c(C(N)=O)c2)ccn1` as the compound, how does the IC50 (CDK8/Cyclin C) read?
A: 0.48 µM

Q: For `NC(=O)c1cc(-c2ccncc2Br)c[nH]1`, which IC50 (CDK8/Cyclin C) is on record?
A: 0.037 µM

Q: Which IC50 (CDK8/Cyclin C) does the source give for `NC(=O)c1cc(-c2ccncc2)c(Cl)[nH]1` here?
A: 0.16 µM

Q: Which results are given for `NC(=O)c1[nH]cc(-c2ccncc2)c1Cl`?
A: IC50 (AGS): 0.37 µM; IC50 (CDK8/Cyclin C): 0.005 µM

Q: With `NC(=O)c1cc(-c2ccnc(Cl)c2)c[nH]1` as the compound, how does the IC50 (CDK8/Cyclin C) read?
A: 0.35 µM

Q: Which IC50 (CDK8/Cyclin C) does the source give for `NC(=O)c1cc(-c2ccncc2)c[nH]1` here?
A: 0.17 µM

Q: With `CCc1c(-c2ccncc2)c[nH]c1C(N)=O` as the compound, how does the IC50 (AGS) read?
A: 1.12 µM

Q: And the IC50 (CDK8/Cyclin C)?
A: 0.013 µM

Q: What does the source list for `Cc1c(-c2ccncc2)c[nH]c1C(N)=O`?
A: IC50 (AGS): 0.8 µM; IC50 (CDK8/Cyclin C): 0.008 µM; inhibition [1]: < 20%; inhibition [2]: < 20%; inhibition [3]: < 20%; inhibition [4]: < 20%; inhibition (Homo sapiens): < 20%; inhibition [5]: < 20%; inhibition [6]: < 20%; inhibition [7]: < 20%; inhibition [8]: < 20%; inhibition [9]: < 20%; inhibition [10]: < 20%; inhibition [11]: < 20%; inhibition [12]: < 20%; inhibition [13]: < 20%; inhibition [14]: < 20%; inhibition [15]: < 20%; inhibition [16]: < 20%; inhibition [17]: < 20%; inhibition [18]: < 20%; inhibition [19]: < 20%; inhibition [20]: < 20%; inhibition [21]: < 20%; inhibition [22]: < 20%; inhibition [23]: < 20%; inhibition [24]: < 20%; inhibition [25]: < 20%; inhibition [26]: < 20%; inhibition [27]: < 20%; inhibition [28]: < 20%; inhibition [29]: < 20%; inhibition [30]: < 20%; inhibition [31]: < 20%; inhibition [32]: < 20%; inhibition [33]: < 20%; inhibition [34]: < 20%; inhibition [35]: < 20%; inhibition [36]: < 20%; inhibition [37]: < 20%; inhibition [38]: < 20%; inhibition [39]: < 20%; inhibition [40]: < 20%; inhibition [41]: < 20%; inhibition [42]: < 20%

Q: For `Cc1cc(-c2c[nH]c(C(N)=O)c2C)ccn1`, which IC50 (CDK8/Cyclin C) is on record?
A: 0.019 µM

Q: For `NC(=O)c1cc(-c2ccncc2Cl)c[nH]1`, which IC50 (CDK8/Cyclin C) is on record?
A: 0.019 µM

Q: With `Cc1cnccc1-c1c[nH]c(C(N)=O)c1C` as the compound, how does the IC50 (AGS) read?
A: 1.17 µM

Q: What about the IC50 (CDK8/Cyclin C) of the same compound?
A: 0.01 µM

Q: Which IC50 (CDK8/Cyclin C) does the source give for `CCc1cnccc1-c1c[nH]c(C#N)c1` here?
A: 4.63 µM

Q: Which IC50 (AGS) does the source give for `NC(=O)c1[nH]cc(-c2ccncc2)c1C(F)(F)F` here?
A: 0.27 µM

Q: And the IC50 (CDK8/Cyclin C)?
A: 0.003 µM

Q: What about the clearance [43] of the same compound?
A: 0.532 L/h/kg

Q: And the Cmax [44]?
A: 9.94 µg/mL

Q: What about the Cmax [45] of the same compound?
A: 12.7 µg/mL

Q: What about the Tmax [46] of the same compound?
A: 15 min

Q: What about the half-life [47] of the same compound?
A: 50.4 min

Q: What about the half-life [48] of the same compound?
A: 475 min

Q: What about the Vd [49] of the same compound?
A: 0.49 L/kg

Q: What about the bioavailability [50] of the same compound?
A: 57.5%

Q: With `Cc1cnccc1-c1c[nH]c(C(N)=O)c1` as the compound, how does the IC50 (CDK8/Cyclin C) read?
A: 0.087 µM

Q: Which IC50 (CDK8/Cyclin C) does the source give for `Cc1[nH]c(C(N)=O)cc1-c1ccncc1` here?
A: 0.24 µM

Q: For `N#Cc1cc(-c2ccncc2)c[nH]1`, which IC50 (CDK8/Cyclin C) is on record?
A: 0.28 µM

Q: With `CNC(=O)c1cc(-c2ccncc2)c[nH]1` as the compound, how does the IC50 (CDK8/Cyclin C) read?
A: 0.41 µM
